{"source": "patent US4060611A", "about": "“3-Carbamylbenzyl-7-(phenylglycyl)amino cephalosporin derivatives” (Beecham Group Limited, priority 1975, dated 1977)", "type_in_all_cases": "cell-based", "key": {"P. mirabilis C977": {"system": "P. mirabilis C977", "assay": "MIC, growth inhibition on nutrient agar", "details": "Proteus mirabilis, nutrient agar (medium not given for Examples 6, 7), read-out: minimum inhibitory concentration (MIC)"}, "E. coli JT1": {"system": "E. coli JT1", "assay": "MIC, growth inhibition on nutrient agar", "details": "Escherichia coli, nutrient agar (medium not given for Examples 6, 7), read-out: minimum inhibitory concentration (MIC)"}, "B. subtilis": {"system": "B. subtilis", "assay": "MIC, growth inhibition on nutrient agar", "details": "Bacillus subtilis, nutrient agar (medium not given for Examples 6, 7), read-out: minimum inhibitory concentration (MIC)"}, "Staph. aureus Oxford": {"system": "Staph. aureus Oxford", "assay": "MIC, growth inhibition on nutrient agar", "details": "Staphylococcus aureus, nutrient agar (medium not given for Examples 6, 7), read-out: minimum inhibitory concentration (MIC)"}, "P. rettgeri": {"system": "P. rettgeri", "assay": "MIC, growth inhibition on nutrient agar", "details": "Providencia rettgeri, nutrient agar (medium not given for Examples 6, 7), read-out: minimum inhibitory concentration (MIC)"}, "Klebsiella aerogenes A": {"system": "Klebsiella aerogenes A", "assay": "MIC, growth inhibition on nutrient agar", "details": "nutrient agar (medium not given for Examples 6, 7), read-out: minimum inhibitory concentration (MIC)"}, "Staph. aureus Russell": {"system": "Staph. aureus Russell", "assay": "MIC, growth inhibition on nutrient agar", "details": "Staphylococcus aureus, nutrient agar (medium not given for Examples 6, 7), read-out: minimum inhibitory concentration (MIC)"}, "Salm. typhi": {"system": "Salm. typhi", "assay": "MIC, growth inhibition on nutrient agar", "details": "Salmonella enterica, read-out: minimum inhibitory concentration (MIC)"}, "Shig. sonnei": {"system": "Shig. sonnei", "assay": "MIC, growth inhibition on nutrient agar", "details": "Shigella sonnei, read-out: minimum inhibitory concentration (MIC)"}, "Enterobacter cloacae N1": {"system": "Enterobacter cloacae N1", "assay": "MIC, growth inhibition on nutrient agar", "details": "nutrient agar (medium not stated for Example 6), read-out: minimum inhibitory concentration (MIC)"}, "β-haemolytic strep. CN10": {"system": "β-haemolytic strep. CN10", "assay": "MIC, growth inhibition on nutrient agar", "details": "nutrient agar (medium not given for Examples 6, 7), read-out: minimum inhibitory concentration (MIC)"}, "P. mirabilis 889": {"system": "P. mirabilis 889", "assay": "MIC, growth inhibition on nutrient agar", "details": "Proteus mirabilis, read-out: minimum inhibitory concentration (MIC)"}, "P. mirabilis 899": {"system": "P. mirabilis 899", "assay": "MIC, growth inhibition on nutrient agar", "details": "Proteus mirabilis, read-out: minimum inhibitory concentration (MIC)"}, "P. morganii": {"system": "P. morganii", "assay": "MIC, growth inhibition", "details": "Morganella morganii, medium not stated, read-out: minimum inhibitory concentration (MIC)"}}, "data": [{"smiles": "NC(=O)c1ccc(CC2=C(C(=O)O)N3C(=O)[C@@H](NC(=O)C(C(=O)Oc4ccccc4)c4ccccc4)[C@H]3SC2)cc1", "note": "(mixture of isomers) [Example 3, 3-(p-Carbamoylbenzyl)-7β-(DL-α-phenoxycarbonylphenylacetamido)ceph-3-em-4-carboxylic acid]", "values": [{"measurement": "MIC", "setting": "P. mirabilis C977", "result": 5, "unit": "µg/mL"}, {"measurement": "MIC", "setting": "E. coli JT1", "result": 5, "unit": "µg/mL"}, {"measurement": "MIC", "setting": "B. subtilis", "result": 10, "unit": "µg/mL"}, {"measurement": "MIC", "setting": "Staph. aureus Oxford", "result": 1, "unit": "µg/mL"}, {"measurement": "MIC", "setting": "P. rettgeri", "result": 5, "unit": "µg/mL"}, {"measurement": "MIC", "setting": "Klebsiella aerogenes A", "result": 10, "unit": "µg/mL"}, {"measurement": "MIC", "setting": "Staph. aureus Russell", "result": 10, "unit": "µg/mL"}, {"measurement": "MIC", "setting": "Salm. typhi", "result": 10, "unit": "µg/mL"}, {"measurement": "MIC", "setting": "Shig. sonnei", "result": 5, "unit": "µg/mL"}, {"measurement": "MIC", "setting": "Enterobacter cloacae N1", "result": 10, "unit": "µg/mL"}, {"measurement": "MIC", "setting": "β-haemolytic strep. CN10", "result": 1, "unit": "µg/mL"}]}, {"smiles": "NC(=O)c1ccc(CC2=C(C(=O)O)N3C(=O)[C@@H](NC(=O)C(C(=O)Oc4ccccc4)c4ccsc4)[C@H]3SC2)cc1", "note": "(mixture of isomers) [Example 6, 3-(p-Carbamoylbenzyl)-7β-(DL-α-phenoxycarbonyl-3^1-thienylacetamido)ceph-3-em-4-carboxylic acid]", "values": [{"measurement": "MIC", "setting": "P. mirabilis C977", "result": 12.5, "unit": "µg/mL"}, {"measurement": "MIC", "setting": "E. coli JT1", "result": 5, "unit": "µg/mL"}, {"measurement": "MIC", "setting": "B. subtilis", "result": 25, "unit": "µg/mL"}, {"measurement": "MIC", "setting": "Staph. aureus Oxford", "result": 12.5, "unit": "µg/mL"}, {"measurement": "MIC", "setting": "P. rettgeri", "result": 5, "unit": "µg/mL"}, {"measurement": "MIC", "setting": "Klebsiella aerogenes A", "result": 2.5, "unit": "µg/mL"}, {"measurement": "MIC", "setting": "Staph. aureus Russell", "result": 25, "unit": "µg/mL"}, {"measurement": "MIC", "setting": "Enterobacter cloacae N1", "result": 12.5, "unit": "µg/mL"}, {"measurement": "MIC", "setting": "β-haemolytic strep. CN10", "result": 25, "unit": "µg/mL"}]}, {"smiles": "NC(=O)c1ccc(CC2=C(C(=O)O)N3C(=O)[C@@H](NC(=O)[C@H](N)c4ccccc4)[C@H]3SC2)cc1", "note": "[Example 1, 3-(p-Carbamoylbenzyl)-7β-(D-α-phenylglycyl)amino-ceph-3-em-4-carboxylic acid]", "values": [{"measurement": "MIC", "setting": "E. coli JT1", "result": 2.5, "unit": "µg/mL"}, {"measurement": "MIC", "setting": "B. subtilis", "result": 0.1, "unit": "µg/mL"}, {"measurement": "MIC", "setting": "Staph. aureus Oxford", "result": 0.1, "unit": "µg/mL"}, {"measurement": "MIC", "setting": "P. mirabilis 889", "result": 2.5, "unit": "µg/mL"}, {"measurement": "MIC", "setting": "Klebsiella aerogenes A", "result": 1, "unit": "µg/mL"}, {"measurement": "MIC", "setting": "Staph. aureus Russell", "result": 2.5, "unit": "µg/mL"}, {"measurement": "MIC", "setting": "Salm. typhi", "result": 2.5, "unit": "µg/mL"}, {"measurement": "MIC", "setting": "Shig. sonnei", "result": 2.5, "unit": "µg/mL"}, {"measurement": "MIC", "setting": "β-haemolytic strep. CN10", "result": 0.01, "unit": "µg/mL"}]}, {"smiles": "NC(=O)c1ccc(CC2=C(C(=O)O)N3C(=O)[C@@H](NC(=O)[C@H](N)c4ccc(O)cc4)[C@H]3SC2)cc1", "note": "[Example 2, 3-(p-Carbamoylbenzyl)-7β-(D-α-p-hydroxyphenylglycyl)amino-ceph-3-em-4-carboxylic acid]", "values": [{"measurement": "MIC", "setting": "P. mirabilis C977", "result": 2.5, "unit": "µg/mL"}, {"measurement": "MIC", "setting": "E. coli JT1", "result": 2.5, "unit": "µg/mL"}, {"measurement": "MIC", "setting": "B. subtilis", "result": 0.25, "unit": "µg/mL"}, {"measurement": "MIC", "setting": "Staph. aureus Oxford", "result": 0.1, "unit": "µg/mL"}, {"measurement": "MIC", "setting": "P. mirabilis 899", "result": 5, "unit": "µg/mL"}, {"measurement": "MIC", "setting": "Klebsiella aerogenes A", "result": 1, "unit": "µg/mL"}, {"measurement": "MIC", "setting": "Staph. aureus Russell", "result": 1, "unit": "µg/mL"}, {"measurement": "MIC", "setting": "Salm. typhi", "result": 0.5, "unit": "µg/mL"}, {"measurement": "MIC", "setting": "Shig. sonnei", "result": 2.5, "unit": "µg/mL"}, {"measurement": "MIC", "setting": "β-haemolytic strep. CN10", "result": 0.02, "unit": "µg/mL"}]}, {"smiles": "NC(=O)c1cccc(CC2=C(C(=O)O)N3C(=O)[C@@H](NC(=O)[C@H](N)c4ccccc4)[C@H]3SC2)c1", "note": "[Example 4, 3-(m-Carbamoylbenzyl)-7β-(D-α-phenylglycyl)amino-ceph-3-em-4-carboxylic acid]", "values": [{"measurement": "MIC", "setting": "B. subtilis", "result": 0.1, "unit": "µg/mL"}, {"measurement": "MIC", "setting": "Staph. aureus Oxford", "result": 0.1, "unit": "µg/mL"}, {"measurement": "MIC", "setting": "P. mirabilis 889", "result": 10, "unit": "µg/mL"}, {"measurement": "MIC", "setting": "Klebsiella aerogenes A", "result": 5, "unit": "µg/mL"}, {"measurement": "MIC", "setting": "Staph. aureus Russell", "result": 2.5, "unit": "µg/mL"}, {"measurement": "MIC", "setting": "Salm. typhi", "result": 10, "unit": "µg/mL"}, {"measurement": "MIC", "setting": "β-haemolytic strep. CN10", "result": 0.05, "unit": "µg/mL"}]}, {"smiles": "NC(=O)c1cc(CC2=C(C(=O)O)N3C(=O)[C@@H](NC(=O)[C@H](N)c4ccccc4)[C@H]3SC2)cc(C(N)=O)c1", "note": "[Example 5, 3-(3,5-dicarbamoylbenzyl)-7β-(D-α-phenylglycyl)amino-ceph-3-em-4-carboxylic acid]", "values": [{"measurement": "MIC", "setting": "B. subtilis", "result": 2.5, "unit": "µg/mL"}, {"measurement": "MIC", "setting": "Staph. aureus Oxford", "result": 0.5, "unit": "µg/mL"}, {"measurement": "MIC", "setting": "Klebsiella aerogenes A", "result": 5, "unit": "µg/mL"}, {"measurement": "MIC", "setting": "Staph. aureus Russell", "result": 5, "unit": "µg/mL"}, {"measurement": "MIC", "setting": "Salm. typhi", "result": 10, "unit": "µg/mL"}, {"measurement": "MIC", "setting": "Shig. sonnei", "result": 10, "unit": "µg/mL"}, {"measurement": "MIC", "setting": "β-haemolytic strep. CN10", "result": 0.5, "unit": "µg/mL"}]}, {"smiles": "CN(C(=O)C=Cc1ccccc1)C(=O)N[C@@H](C(=O)N[C@@H]1C(=O)N2C(C(=O)O)=C(Cc3ccc(C(N)=O)cc3)CS[C@H]12)c1ccccc1", "note": "[Example 7, 3-(p-Carbamoylbenzyl)-7β-[D-α-(3-cinnamoyl-3-methyluriedo)phenylacetamido]ceph-3-em-4-carboxylic acid]", "values": [{"measurement": "MIC", "setting": "P. mirabilis C977", "result": 5, "unit": "µg/mL"}, {"measurement": "MIC", "setting": "E. coli JT1", "result": 5, "unit": "µg/mL"}, {"measurement": "MIC", "setting": "B. subtilis", "result": 5, "unit": "µg/mL"}, {"measurement": "MIC", "setting": "P. morganii", "result": 5, "unit": "µg/mL"}, {"measurement": "MIC", "setting": "Staph. aureus Oxford", "result": 0.1, "unit": "µg/mL"}, {"measurement": "MIC", "setting": "P. rettgeri", "result": 12.5, "unit": "µg/mL"}, {"measurement": "MIC", "setting": "Klebsiella aerogenes A", "result": 5, "unit": "µg/mL"}, {"measurement": "MIC", "setting": "Staph. aureus Russell", "result": 12.5, "unit": "µg/mL"}, {"measurement": "MIC", "setting": "β-haemolytic strep. CN10", "result": 0.05, "unit": "µg/mL"}]}]}
